The values that follow are results of earlier work, collected in patent US11345964B2, “BCR-ABL truncation mutations” (Quest Diagnostics Investments LLC, priority 2009, dated 2022).

This data set relates to patients with myeloproliferative diseases. The settings on record: imatinib therapy.

SMILES strings stand for the structures. Structures can show the parent of a compound that is named as a salt. Where two headings read alike, the source gives them in different places.

In the case of `Cc1ccc(NC(=O)c2ccc(CN3CCN(C)CC3)cc2)cc1Nc1nccc(-c2cccnc2)n1` [imatinib, imatinib mesylate], the “Primary resistance (failure to achieve any hematologic response) rate” value by setting is: (accelerated phase) 9%; (blast phase) 51%; (chronic phase) 3%. For the same compound, the “Secondary resistance (hematologic recurrence) rate” value reads like this: (accelerated phase) 32%; (blast phase) 41%; (chronic phase) 22%.
